Experimental data: PubChem BioAssay (NCI)
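All cell lines were grown in 96-well plates and treated with compound for 48 hours. GI50 = concentration required for 50% inhibition of growth. TGI: total growth inhibition.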

Legend:
Experiment in all cases: growth of human tumour cells (NCI), 48 h
[1] = tested on: 786-0 renal
[2] = tested on: A498 renal
[3] = tested on: A549 NSCLC
[4] = tested on: ACHN renal
[5] = tested on: BT-549 breast
[6] = tested on: CAKI-1 renal
[7] = tested on: CCRF-CEM leukemia
[8] = tested on: COLO 205 colon
[9] = tested on: DU-145 prostate
[10] = tested on: EKVX NSCLC
[11] = tested on: HCT-116 colon
[12] = tested on: HCT-15 colon
[13] = tested on: HL-60(TB) leukemia
[14] = tested on: HOP-62 NSCLC
[15] = tested on: HOP-92 NSCLC
[16] = tested on: HS 578T breast
[17] = tested on: HT29 colon
[18] = tested on: IGROV1 ovarian
[19] = tested on: K-562 leukemia
[20] = tested on: LOX IMVI melanoma
[21] = tested on: M14 melanoma
[22] = tested on: MCF7 breast
[23] = tested on: MDA-MB-231 breast
[24] = tested on: MDA-MB-435
[25] = tested on: MOLT-4 leukemia
[26] = tested on: NCI-H226 lung
[27] = tested on: NCI-H23 lung
[28] = tested on: NCI-H460 lung
[29] = tested on: NCI-H522 lung
[30] = tested on: NCI/ADR-RES ovarian
[31] = tested on: OVCAR-3 ovarian
[32] = tested on: OVCAR-4 ovarian
[33] = tested on: OVCAR-5 ovarian
[34] = tested on: OVCAR-8 ovarian
[35] = tested on: RPMI-8226 leukemia
[36] = tested on: RXF 393 renal
[37] = tested on: SF-268 CNS
[38] = tested on: SF-295 CNS
[39] = tested on: SF-539 CNS
[40] = tested on: SK-MEL-2 melanoma
[41] = tested on: SK-MEL-28 melanoma
[42] = tested on: SK-MEL-5 melanoma
[43] = tested on: SK-OV-3 ovarian
[44] = tested on: SN12C renal
[45] = tested on: SNB-19 CNS
[46] = tested on: SNB-75 CNS
[47] = tested on: SR leukemia
[48] = tested on: SW-620 colon
[49] = tested on: T-47D breast
[50] = tested on: U251 CNS
[51] = tested on: UACC-257 melanoma
[52] = tested on: UACC-62 melanoma
[53] = tested on: UO-31 renal

Question: Which GI50 [1] does the source give for CCOc1ccc2nc(SCc3nc4n(n3)S(=O)(=O)c3ccccc3N4C)sc2c1 here?
Answer: > 100 µM

Question: What about the TGI [1] of the same compound?
Answer: > 100 µM

Question: What about the GI50 [2] of the same compound?
Answer: > 100 µM

Question: And the TGI [2]?
Answer: > 100 µM

Question: What about the GI50 [3] of the same compound?
Answer: > 100 µM

Question: What about the TGI [3] of the same compound?
Answer: > 100 µM

Question: And the GI50 [4]?
Answer: > 100 µM

Question: And the TGI [4]?
Answer: > 100 µM

Question: And the GI50 [5]?
Answer: 59.3 µM

Question: What about the TGI [5] of the same compound?
Answer: > 100 µM

Question: And the GI50 [6]?
Answer: > 100 µM

Question: And the TGI [6]?
Answer: > 100 µM

Question: And the GI50 [7]?
Answer: 64.2 µM

Question: And the TGI [7]?
Answer: > 100 µM

Question: And the GI50 [8]?
Answer: > 100 µM

Question: What about the TGI [8] of the same compound?
Answer: > 100 µM

Question: And the GI50 [9]?
Answer: > 100 µM

Question: And the TGI [9]?
Answer: > 100 µM

Question: What about the GI50 [10] of the same compound?
Answer: > 100 µM

Question: What about the TGI [10] of the same compound?
Answer: > 100 µM

Question: And the GI50 [11]?
Answer: 55.8 µM

Question: What about the TGI [11] of the same compound?
Answer: > 100 µM

Question: And the GI50 [12]?
Answer: > 100 µM

Question: What about the TGI [12] of the same compound?
Answer: > 100 µM

Question: What about the GI50 [13] of the same compound?
Answer: 82.7 µM

Question: And the TGI [13]?
Answer: > 100 µM

Question: And the GI50 [14]?
Answer: 50.8 µM

Question: What about the TGI [14] of the same compound?
Answer: > 100 µM

Question: What about the GI50 [15] of the same compound?
Answer: 20.7 µM

Question: And the TGI [15]?
Answer: 58.5 µM

Question: What about the GI50 [16] of the same compound?
Answer: 45 µM

Question: What about the TGI [16] of the same compound?
Answer: > 100 µM

Question: And the GI50 [17]?
Answer: > 100 µM

Question: What about the TGI [17] of the same compound?
Answer: > 100 µM

Question: What about the GI50 [18] of the same compound?
Answer: > 100 µM

Question: And the TGI [18]?
Answer: > 100 µM

Question: And the GI50 [19]?
Answer: 71.2 µM

Question: What about the TGI [19] of the same compound?
Answer: > 100 µM

Question: And the GI50 [20]?
Answer: > 100 µM

Question: What about the TGI [20] of the same compound?
Answer: > 100 µM

Question: What about the GI50 [21] of the same compound?
Answer: > 100 µM

Question: And the TGI [21]?
Answer: > 100 µM

Question: And the GI50 [22]?
Answer: > 100 µM

Question: What about the TGI [22] of the same compound?
Answer: > 100 µM

Question: What about the GI50 [23] of the same compound?
Answer: 73.1 µM

Question: And the TGI [23]?
Answer: > 100 µM

Question: What about the GI50 [24] of the same compound?
Answer: > 100 µM

Question: What about the TGI [24] of the same compound?
Answer: > 100 µM

Question: What about the GI50 [25] of the same compound?
Answer: > 100 µM

Question: And the TGI [25]?
Answer: > 100 µM

Question: What about the GI50 [26] of the same compound?
Answer: > 100 µM

Question: And the TGI [26]?
Answer: > 100 µM

Question: What about the GI50 [27] of the same compound?
Answer: 57.7 µM

Question: And the TGI [27]?
Answer: > 100 µM

Question: What about the GI50 [28] of the same compound?
Answer: > 100 µM

Question: And the TGI [28]?
Answer: > 100 µM

Question: And the GI50 [29]?
Answer: 86.4 µM

Question: What about the TGI [29] of the same compound?
Answer: > 100 µM

Question: What about the GI50 [30] of the same compound?
Answer: > 100 µM

Question: And the TGI [30]?
Answer: > 100 µM

Question: What about the GI50 [31] of the same compound?
Answer: > 100 µM

Question: What about the TGI [31] of the same compound?
Answer: > 100 µM

Question: What about the GI50 [32] of the same compound?
Answer: > 100 µM

Question: And the TGI [32]?
Answer: > 100 µM

Question: And the GI50 [33]?
Answer: > 100 µM

Question: What about the TGI [33] of the same compound?
Answer: > 100 µM

Question: What about the GI50 [34] of the same compound?
Answer: 73 µM

Question: And the TGI [34]?
Answer: > 100 µM

Question: And the GI50 [35]?
Answer: 31.5 µM

Question: What about the TGI [35] of the same compound?
Answer: > 100 µM

Question: And the GI50 [36]?
Answer: 30.1 µM

Question: And the TGI [36]?
Answer: 97.3 µM

Question: And the GI50 [37]?
Answer: 57.6 µM

Question: What about the TGI [37] of the same compound?
Answer: > 100 µM

Question: What about the GI50 [38] of the same compound?
Answer: > 100 µM

Question: And the TGI [38]?
Answer: > 100 µM

Question: And the GI50 [39]?
Answer: 53.8 µM

Question: What about the TGI [39] of the same compound?
Answer: > 100 µM

Question: And the GI50 [40]?
Answer: > 100 µM

Question: What about the TGI [40] of the same compound?
Answer: > 100 µM

Question: What about the GI50 [41] of the same compound?
Answer: > 100 µM

Question: And the TGI [41]?
Answer: > 100 µM

Question: And the GI50 [42]?
Answer: > 100 µM

Question: What about the TGI [42] of the same compound?
Answer: > 100 µM

Question: What about the GI50 [43] of the same compound?
Answer: > 100 µM

Question: And the TGI [43]?
Answer: > 100 µM

Question: And the GI50 [44]?
Answer: > 100 µM

Question: And the TGI [44]?
Answer: > 100 µM

Question: What about the GI50 [45] of the same compound?
Answer: > 100 µM

Question: What about the TGI [45] of the same compound?
Answer: > 100 µM

Question: What about the GI50 [46] of the same compound?
Answer: 28.8 µM

Question: And the TGI [46]?
Answer: 83.8 µM

Question: What about the GI50 [47] of the same compound?
Answer: 51.5 µM

Question: And the TGI [47]?
Answer: > 100 µM

Question: What about the GI50 [48] of the same compound?
Answer: > 100 µM

Question: And the TGI [48]?
Answer: > 100 µM

Question: What about the GI50 [49] of the same compound?
Answer: 81.6 µM

Question: What about the TGI [49] of the same compound?
Answer: > 100 µM

Question: And the GI50 [50]?
Answer: 68.5 µM

Question: And the TGI [50]?
Answer: > 100 µM

Question: And the GI50 [51]?
Answer: > 100 µM

Question: What about the TGI [51] of the same compound?
Answer: > 100 µM

Question: What about the GI50 [52] of the same compound?
Answer: > 100 µM

Question: And the TGI [52]?
Answer: > 100 µM

Question: And the GI50 [53]?
Answer: > 100 µM

Question: And the TGI [53]?
Answer: > 100 µM
